Results as given in US7138361B2, “Herbicidal heterocycles” (E. I. du Pont de Nemours and Company, priority 2000, dated 2006).

Legend:
Format in all cases: in vivo
[1] = system: kochia (Kochia scoparia); assay: Test C preemergence
Source text: (§1) Seeds of plant species selected from bermudagrass (Cynodon dactylon), Surinam grass (Brachiaria decumbens), cocklebur (Xanthium strumarium), corn (Zea mays), crabgrass (Digitaria sanguinalis), woolly cupgrass (Eriochloa villosa), giant foxtail (Setaria faberii), goosegrass (Eleusine indica), johnsongrass (Sorghum halepense), kochia (Kochia scoparia), lambsquarters (Chenopodium album), morningglory (Ipomoea hederacea), yellow nutsedge (Cyperus esculentus), pigweed (Amaranthus retroflexus), common ragweed (Ambrosia elatior), soybean (Glycine max) and velvetleaf (Abutilon theophrasti) were planted and treated preemergence with test chemicals formulated in a non-phytotoxic solvent mixture which included a surfactant.
(§2) At the same time, plants selected from these crop and weed species and also winter barley (Hordeum vulgare), blackgrass (Alopecurus myosuroides), canary grass (Phalaris minor), chickweed (Stellaria media), downy brome (Bromus tectorum), green foxtail (Setaria viridis), Italian ryegrass (Lolium multiflorum), wheat (Triticum aestivum), wild oat (Avena fatua) and windgrass (Apera spica-venti) were treated with postemergence applications of some of the test chemicals formulated in the same manner. Plants ranged in height from 2 to 18 cm (1- to 4-leaf stage) for postemergence treatments. Plant species in the flooded paddy test consisted of rice (Oryza saliva), smallflower flatsedge (Cyperus difformis), duck salad (Heteranthera limosa) and barnyardgrass (Echinochloa crus-galli) grown to the 2-leaf stage for testing. Treated plants and controls were maintained in a greenhouse for 12 to 14 days, after which time all species were compared to controls and visually evaluated. Plant response ratings, summarized in Table C, are based on a scale of 0 to 100 where 0 is no effect and 100 is complete control. A dash (-) response means no test result.

[2] = system: soybean (Glycine max); assay: Test C preemergence
Source text: as §1, §2

[3] = system: giant foxtail (Setaria faberii); assay: Test C preemergence
Source text: as §1, §2

[4] = system: pigweed (Amaranthus retroflexus); assay: Test C preemergence
Source text: as §1, §2

[5] = system: cocklebur (Xanthium strumarium); assay: Test C preemergence
Source text: as §1, §2

[6] = system: woolly cupgrass (Eriochloa villosa); assay: Test C preemergence
Source text: as §1, §2

[7] = system: crabgrass (Digitaria sanguinalis); assay: Test C preemergence
Source text: as §1, §2

[8] = system: Surinam grass (Brachiaria decumbens); assay: Test C preemergence
Source text: as §1, §2

[9] = system: bermudagrass (Cynodon dactylon); assay: Test C preemergence
Source text: as §1, §2

[10] = system: velvetleaf (Abutilon theophrasti); assay: Test B preemergence
Method in brief: (§3)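 Ratings on a 0 to 100 visual scale (100 complete control) compare treated plants with controls 13 to 15 days after application. Treatments were pre- or postemergence sprays of compound in non-phytotoxic solvent with surfactant.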

[11] = system: morning glory (Ipomoea hederacea); assay: Test B preemergence
Method in brief: as §3

[12] = system: giant foxtail (Setaria faberii); assay: Test B preemergence
Method in brief: as §3

[13] = system: pigweed (Amaranthus retroflexus); assay: Test B preemergence
Method in brief: as §3

[14] = system: cocklebur (Xanthium strumarium); assay: Test B preemergence
Method in brief: as §3

[15] = system: barnyardgrass (Echinochloa crus-galli); assay: Test B preemergence
Method in brief: as §3

[16] = system: corn (Zea mays); assay: Test B preemergence
Method in brief: as §3

[17] = system: crabgrass (Digitaria sanguinalis); assay: Test B preemergence
Method in brief: as §3

[18] = system: rice (Oryza saliva); assay: Test B preemergence
Method in brief: as §3

[19] = system: Surinam grass (Brachiaria decumbens); assay: Test B preemergence
Method in brief: as §3

[20] = system: Sunflower; assay: Test C preemergence; details: scale 0 to 100, 0 no effect, 100 complete control
[21] = system: Nightshade; assay: Test C preemergence; details: Rate 250 g/ha, visual evaluation after 12 to 14 days
[22] = system: lambsquarters (Chenopodium album); assay: Test B preemergence
Method in brief: as §3

[23] = Preemergence, Rate 500 g/ha, scale 0 to 100
[24] = Rate 62 g/ha, scale 0 to 100, 0 no effect, 100 complete control
[25] = preemergence, Rate 250 g/ha, visual evaluation after 12 to 14 days
[26] = preemergence, Rate 125 g/ha, scale 0 to 100, 0 no effect, 100 complete control
[27] = Preemergence, Rate 500 g/ha, scale 0 to 100, 0 no effect, 100 complete control
[28] = Rate 125 g/ha, scale 0 to 100, 0 no effect, 100 complete control
[29] = preemergence, Rate 31 g/ha, scale 0 to 100
[30] = preemergence, Rate 62 g/ha, scale 0 to 100
[31] = preemergence, Rate 250 g/ha, scale 0 to 100, 0 no effect, 100 complete control
[32] = preemergence, Rate 125 g/ha, scale of 0 to 100 where 0 is no effect and 100 is complete control, 13 to 15 days

CCC(C)c1ccn(C2SCN(c3cccc(C(F)(F)F)c3)C2=O)n1 (centres unmarked) [Compound 20]
50: Plant response rating, Cocklebur [5, 23] | Plant response rating, Cupgrass, Woolly [6, 26]
60: Plant response rating, Soybean [2, 23] | Plant response rating (0 to 100), Soybean [2, 25] | Plant response rating, Pigweed [4, 23]
70: Plant response rating, Bermudagrass [9, 24] | Plant response rating, Foxtail, Giant [12, 26]
0: Plant response rating, Soybean [2, 24] | Plant response rating, Soybean [2, 26] | Plant response rating, Foxtail, Giant [3, 23] | Plant response rating, Foxtail, Giant [3, 24] | Plant response rating, Foxtail, Giant [3, 26] | Plant response rating, Pigweed [4, 24] | Plant response rating, Cocklebur [5, 24] | Plant response rating (0 to 100), Cocklebur [5, 25] | Plant response rating, Cocklebur [5, 26] | Plant response rating, Cupgrass, Woolly [6, 24] | Plant response rating, Crabgrass [7, 24] | Plant response rating, Surinam grass [8, 24] | Plant response rating (0 to 100), Surinam grass [8, 25] | Plant response rating, Surinam grass [8, 26] | Plant response rating, Velvetleaf [10, 27] | Plant response rating, Velvetleaf [10, 26] | Plant response rating, Morningglory [11, 27] | Plant response rating, Morningglory [11, 26] | Plant response rating, Pigweed [13, 26] | Plant response rating, Cocklebur [14, 27] | Plant response rating, Cocklebur [14, 26] | Plant response rating, Barnyardgrass [15, 26] | Plant response rating, Corn [16, 27] | Plant response rating, Corn [16, 26] | Plant response rating, Crabgrass [17, 26] | Plant response rating, Rice [18, 27] | Plant response rating, Rice [18, 26] | Plant response rating, Surinam grass [19, 27] | Plant response rating, Surinam grass [19, 26]
90: Plant response rating, Kochia [1, 24] | Plant response rating (0 to 100), Cupgrass, Woolly [6, 25] | Plant response rating (0 to 100), Nightshade [21]
40: Plant response rating, Surinam grass [8, 23] | Plant response rating, Sunflower ([20]; Rate 125 g/ha)
30: Plant response rating, Pigweed [4, 26]
100: Plant response rating, Kochia [1, 23] | Plant response rating (0 to 100), Kochia [1, 25] | Plant response rating, Kochia [1, 26] | Plant response rating (0 to 100), Foxtail, Giant [3, 25] | Plant response rating (0 to 100), Pigweed [4, 25] | Plant response rating, Cupgrass, Woolly [6, 23] | Plant response rating, Crabgrass [7, 23] | Plant response rating (0 to 100), Crabgrass [7, 25] | Plant response rating, Crabgrass [7, 26] | Plant response rating, Bermudagrass [9, 23] | Plant response rating (0 to 100 where 0 is no effect and 100 is complete control), Bermudagrass [9, 25] | Plant response rating, Bermudagrass [9, 26] | Plant response rating, Foxtail, Giant [12, 27] | Plant response rating, Pigweed [13, 27] | Plant response rating, Barnyardgrass [15, 27]

CC(C)OC(=O)c1cccc(N2CCC(n3ccc(C(C)(C)C)n3)C2=O)c1 (centres unmarked) [Compound 124]
60: Plant response rating, Kochia [1, 28] | Plant response rating, Cupgrass, Woolly [6, 31] | Plant response rating, Bermudagrass [9, 30] | Plant response rating, Morningglory [11, 27]
40: Plant response rating, Kochia [1, 30] | Plant response rating, Surinam grass [19, 27]
90: Plant response rating, Kochia [1, 31] | Plant response rating, Crabgrass [7, 30]
30: Plant response rating, Cupgrass, Woolly [6, 30] | Plant response rating, Crabgrass [17, 32]
70: Plant response rating, Barnyardgrass [15, 32]
20: Plant response rating, Foxtail, Giant [3, 28]
80: Plant response rating, Crabgrass [7, 29] | Plant response rating, Bermudagrass [9, 28] | Plant response rating, Pigweed [13, 32]
85: Plant response rating, Foxtail, Giant [3, 31]
100: Plant response rating, Crabgrass [7, 28] | Plant response rating, Crabgrass [7, 31] | Plant response rating, Bermudagrass [9, 31] | Plant response rating, Foxtail, Giant [12, 27] | Plant response rating, Pigweed [13, 27] | Plant response rating, Barnyardgrass [15, 27] | Plant response rating, Lambsquarters [22, 27] | Plant response rating, Lambsquarters [22, 32] | Plant response rating, Crabgrass [17, 27]
0: Plant response rating, Kochia [1, 29] | Plant response rating, Soybean [2, 28] | Plant response rating, Soybean [2, 29] | Plant response rating, Soybean [2, 30] | Plant response rating, Soybean [2, 31] | Plant response rating, Foxtail, Giant [3, 29] | Plant response rating, Foxtail, Giant [3, 30] | Plant response rating, Pigweed [4, 28] | Plant response rating, Pigweed [4, 29] | Plant response rating, Pigweed [4, 30] | Plant response rating, Cocklebur [5, 28] | Plant response rating, Cocklebur [5, 29] | Plant response rating, Cocklebur [5, 30] | Plant response rating, Cocklebur [5, 31] | Plant response rating, Cupgrass, Woolly [6, 29] | Plant response rating, Surinam grass [8, 28] | Plant response rating, Surinam grass [8, 29] | Plant response rating, Surinam grass [8, 30] | Plant response rating, Bermudagrass [9, 29] | Plant response rating, Velvetleaf [10, 27] | Plant response rating, Velvetleaf [10, 32] | Plant response rating, Morningglory [11, 32] | Plant response rating, Cocklebur [14, 27] | Plant response rating, Cocklebur [14, 32] | Plant response rating, Corn [16, 27] | Plant response rating, Corn [16, 32] | Plant response rating, Rice [18, 27] | Plant response rating, Rice [18, 32] | Plant response rating, Surinam grass [19, 32] | Plant response rating, Sunflower ([20]; Rate 250 g/ha)
10: Plant response rating, Surinam grass [8, 31]
50: Plant response rating, Pigweed [4, 31] | Plant response rating, Cupgrass, Woolly [6, 28] | Plant response rating, Foxtail, Giant [12, 32]
